Measurements as given in patent US20080008658A1, “Contrast Agent Formulations for the Visualization of the Lymphatic System” (Bracco Imaging SpA, priority 2004, published 2008).

Assay: Particle size distribution of microbubble suspensions in the Coulter Multisizer, method b (flotation purification from gas-free particles)
Type: physicochemical
Description: Dye-containing suspensions of gas-containing ultrasound contrast agents of the invention were analyzed for the particle size distributions in the Coulter® Multisizer (Beckman Coulter Inc. Fullerton, Calif., USA). […] Two methods may be used to determine the distribution of just the gas-containing particles in the compositions of the invention. Method b) The frequency distribution of the diameter of gas-containing particles is obtained after purification of the initial particle suspension from gas-free particles. Purification is achieved by flotation of the gas-containing particles in a centrifuge and substitution of the infranatant containing the gas-free particles with fresh saline. The procedure is executed once or twice depending on the initial contamination by gas-free particles. This method is preferable in those cases wherein the amount of insoluble material in the gas-containing particles exceeds 10% of the total insoluble material, in the initial suspension. The results may be represented either in the form of plots of the frequency distributions (e.g. example 11 and FIG. 1) or as parameters elaborated therefrom, i. e. total microbubble concentration, total microbubble surface, microbubble volume concentration and mean diameter in number (e.g. example 12). […]

**Q.** With `Cc1cc(-c2ccc(/N=N/c3ccc4c(S(=O)(=O)O)cc(S(=O)(=O)O)c(N)c4c3O)c(C)c2)ccc1/N=N/c1ccc2c(S(=O)(=O)O)cc(S(=O)(=O)O)c(N)c2c1O` [Evans blue] as the compound, how does the “Interference with the regular formation of microbubbles” value (SonoVue reconstituted with saline containing Evans blue vs regular SonoVue, echographic perspective) read?
**A.** negligible

**Q.** What about the “Stability of the microbubbles” value (time 0 vs after 3 h, presence of Evans blue) of the same compound?
**A.** did not jeopardize the stability of the microbubbles
